# Laboratory results as given in US20240116971A1, “NMN AND DERIVATIVES FOR ITS USE IN THE TREATMENT OF DEPRESSION AND/OR ANXIETY IN PATIENTS HAVING A FORM OF PARKINSONISM” (Nuvamid SA, priority 2021, published 2024).
# Columns and labels:
# MSA patients [1] = assay: Efficacy on the UMSARS scale; type: in vivo, human; details: for UMSARS activities of daily living sub-score, change: score 0 to 48, lower is better, p-value >0.05
# Method: For each eligible patient: during the first visit, the investigator carries out a specific complementary clinical examination MSA (validated specific scale: UMSARS) in order to score the basal level of the patient at inclusion on 4 axes: activities of daily living (12 items), motor level (14 items), orthostatic hypotension [4 measures: BP standing/sleeping (2 min); CF standing/sleeping (2 min) and orthostatic symptoms [Y/N] and finally, decide on their level of disability (1 item). During this visit, they are given pillbox No 1. They are told to start the product under study the next morning, on D1. In fact, the first intake of the dietary supplement can be taken the next morning with breakfast (2 capsules). Pill box No 1 must be returned at visit V2 (D15) to check compliance. A first daily follow-up notebook (follow-up notebook no 1) is given to the patient to record the intake of the food supplement, the concomitant treatments (if applicable) and any undesirable events that may have occurred. Follow-up notebook no 1 should be returned to the investigator at the V2 follow-up visit. The nurse goes to the patient's home 2 days before each follow-up visit in order to carry out the blood test (safety biology), take the hemodynamic constants standing/lying down (after a 2 minute rest): SAP/DAP and HR which is filled in the patient's follow-up notebook. The nurse checks the patient's compliance with the pillbox and the follow-up booklet. The nurse also reminds the patient not to forget to bring back the pill dispenser and the follow-up booklet at each visit. The investigator also takes the hemodynamic constants of the patient standing and lying down (after 2 minutes rest): SAP/DAP and HR. During this consultation, the patient/carer is also asked to answer a specific quality of life questionnaire (MSA-QoL questionnaire). If the patient meets all the eligibility criteria (apart from biology), the neurologist gives them a medical prescription to carry out a biological assessment. This biological assessment must be carried out within 3 days depending on the patient's availability. To do this, a nurse visits the patient at his/her home to collect the biological samples and to send it to the Medical Analysis Laboratories, the local reference laboratory for this research.
# During the third visit at D45 and fourth visit at D90, the investigator also carries out a specific complementary clinical examination MSA (validated specific scale: UMSARS) in order to score the patient's level after 3 months of NMN supplementation on 4 axes: activities of daily living (12 items), motor level (14 items), orthostatic hypotension [4 measures: BP standing/sleeping (2 min); HR standing/sleeping (2 min) and orthostatic symptoms Y/N] and finally decide on their level of disability (1 item).
# MSA patients [2] = assay: Quality of life, MSA-QoL self-questionnaire; type: in vivo, human; details: for MSA-QoL non-motor subscore, average difference compared to V1: V1 30.4±10.0 points; for MSA-QoL Motor subscore, average difference compared to V1: V1 40.1±19.0 points
# Description: [table] At this visit, the investigator checks the patient's completed follow-up notebook (compliance, adverse event (AE), treatments) and carries out an interrogation and clinical examination, including the taking of standing and lying hemodynamic constants (SAP/DAP and HR) in order to check the tolerance and the possible occurrence of an adverse event. Compliance is also monitored. The patient is asked to complete a quality of life questionnaire (MSA-QoL). Quality of life—MSA—QoL: the MSA-QoL scale is organized into 4 subsections: • Motor sub-score: items 1 to 14; • Non-motor sub-score: items 15 to 26; • Emotional/social sub-score: items 27 to 40. • Overall satisfaction of quality of life of 100 mm to describe the patient's overall satisfaction with their life.
# [3] = at 3 months, mITT and PP populations
# [4] = mITT population, V3, p-value >0.05
# [5] = mITT population, V4, p-value >0.05
structure (smiles),measurement,setting,value
"NC(=O)c1ccc[n+]([C@@H]2O[C@H](COP(=O)([O-])O)[C@@H](O)[C@H]2O)c1 [beta-NMN, nicotinamide mononucleotide]",UMSARS Motor Examination Scale: improved items,"MSA patients [1]; NMN 400 mg/day, 3 months",facial expression and tremor at rest
same,UMSARS activities of daily living: improved items,"MSA patients [1]; NMN 400 mg/day, 3 months","speech, writing, eating and handling cutlery, dressing, risk of falling and orthostatic symptoms"
same,UMSARS disability scale score,"MSA patients [1]; PP population, 3.5±1.0 points at VO, scale 1 to 5",maintained at V3 and V4
same,Orthostatic hypotension (OH),"MSA patients [1]; V3 and V4, OH had been detected in these patients at previous visits, other patients unchanged",two patients showed no signs of OH at V3 and V4
same,functional situation of the patients,"MSA patients [1]; at 1.5 months and 3 months, mITT and PP populations",slight improvement
same,"UMSARS motor examination, overall","MSA patients [1]; at 3 months, mITT and PP",did not show any improvement in the motor examination but did not show any deterioration
same,"UMSARS activities of daily living sub-score, change","MSA patients [1]; mITT population, V3 vs VO (16.3±6.8 points)",−0.3 point
same,"UMSARS Motor Examination Scale sub-score, change","MSA patients [1]; mITT population, V3 vs VO (18.5±11.3 points), score 0 to 56, lower is better",−0.6 points
same,UMSARS Motor Examination Scale sub-score,"MSA patients [1]; mITT population, V4, VO 18.5±11.3 points",rises again at V4 to reach the score observed at VO
same,"UMSARS activities of daily living sub-score, change","MSA patients [1]; mITT population, V4 vs VO (16.3±6.8 points)",−1.0 point
same,UMSARS disability scale score,"MSA patients [1]; mITT population, 2.9±1.4 points at VO, scale 1 to 5, lower is more independent",perfectly maintained at V3 and V4
same,"Overall satisfaction with quality of life, scaling","MSA patients [2]; PP population, V3 and V4 compared to V1",slight increase
same,MSA-QoL Emotional/Social sub-score,MSA patients [2]; [3],improvement
same,MSA-QoL Motor subscore,MSA patients [2]; [3],improvement
same,MSA-QoL non-motor subscore,MSA patients [2]; [3],improvement
same,"Overall satisfaction with quality of life, scaling","MSA patients [2]; mITT population, V2, V3 and V4 compared to V1, p-value >0.05",very slight decrease
same,"MSA-QoL non-motor subscore, average difference compared to V1","MSA patients [2]; mITT population, V2, 0 to 48, higher is worse, p-value >0.05",−2.0 points
same,"MSA-QoL Motor subscore, average difference compared to V1","MSA patients [2]; mITT population, V2, 0 to 56, higher is worse, p-value >0.05",−1.3 points
same,"MSA-QoL non-motor subscore, average difference compared to V1",MSA patients [2]; [4],−5.2 points
same,"MSA-QoL Motor subscore, average difference compared to V1",MSA patients [2]; [4],−5.6 points
same,"MSA-QoL non-motor subscore, average difference compared to V1",MSA patients [2]; [5],−4.1 points
same,"MSA-QoL Motor subscore, average difference compared to V1",MSA patients [2]; [5],−5.1 points
